Results published in paper PMC11219871, “Epigenetic-based differentiation therapy for Acute Myeloid Leukemia” (Nature Communications, 2024).
Where “and” joins values, the source holds several entries; their conditions need not be identical. Equal values may be shown once. Read-outs that look alike come from different tables or passages of the source.

Tests used:
Format in all cases: cell-based, human
[1] = test system: HL-60; experiment: Cell proliferation assay: GI50; conditions: read-out: GI50
In short: (§1)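 Suspension cells at 1 × 10^6 cells/mL were treated in triplicate, then incubated 1–3 h with MTS reagent (CellTiter 96 AQueous One) for colorimetric viable-cell read-out. After medium-only background subtraction, absorbance was expressed as % of untreated cells, and GI50 was fitted by non-linear regression.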

[2] = test system: ML-2; experiment: Cell proliferation assay: GI50
In short: as §1

[3] = test system: MOLM-13; experiment: Cell proliferation assay: GI50
In short: as §1

[4] = test system: MV4-11; experiment: Cell proliferation assay: GI50
In short: as §1

[5] = test system: ML-2; experiment: Acetylome analysis (Acetyl-K enrichment, LC-MS/MS); conditions: for Acetyl-K sites regulated, Number, Histone proteins / Acetyl-K sites regulated, Number, Non-histone proteins / Acetyl-K sites regulated, Percentages, Histone proteins / Acetyl-K sites regulated, Percentages, Non-histone proteins: Fig 4G; for Acetyl-K sites, Down-regulated / Acetyl-K sites, Up-regulated: Fig. 4C; for regulated Acetyl-K sites in Histone proteins / regulated Acetyl-K sites in Non-histone proteins: Fig. 4G; for percentage of Acetyl-K sites regulated: of 3618 quantified
Description: Cellular pellets were lysed for 15 min at 95 °C in 4% SDS, 100 mM Hepes/NaOH pH 8.0, containing 5 mM sodium butyrate and 5 mM Nicotinamide. After cooling down, lysates were incubated at 25 °C with 10 units of DNAse (Benzonase, Merk) and sonicated for 15 min in a Bioruptor for DNA shearing. Protein concentration was determined using microBCA, using BSA as standard. Samples were digested using on-bead protein aggregation capture (PAC) with ReSyn Biosciences MagReSyn® Hydoxyl microparticles (ratio Protein/Beads 1:5) in an automated King Fisher instrument (Thermo). Proteins were digested for 16 h at 37 C with LysC/Trypsin mix at a protein: enzyme ratio of 1:100 in 50 mM TEAB pH 8.0 (Trypsin Sequence grade, Sigma; LysC, Wako). The resulting peptides were speed-vac dried and dissolved in 100 µL of 200 mM HEPES pH 8.5.
Peptides (500 µg) were labeled with Thermo Scientific TMTpro 18plex™ Isobaric reagents for 1 h at 25 C. Reaction was quenched by adding 5% hydroxylamine for 15 min. Samples were pooled at a 1:1 ratio based on the total peptide amount, determined by comparing overall signal intensities on a regular LC-MS/MS run. The final mixture was desalted using a 500 mg Sep-Pak C18t cartridge (Waters) and dried prior to high pH reverse phase HPLC pre-fractionation.
Labeled peptides were fractionated offline through a high pH reverse phase chromatography using an Ultimate 3000 HPLC system equipped with a sample collector. Briefly, peptides were dissolved in 1200 µL of Buffer A (10 mM NH4OH) and loaded onto a XBridge BEH130 C18 column (3.5 µm, 250 mm length and 3.5 mm ID, Waters). Buffer B was composed of 10 mM NH4OH in 90% CH3CN. The following gradient was used at a flow rate of 500 µL/min: 0-50 min 0-25% B, 50-56 min 25-60% B, 56-57 min 60-90% B. One-minute fractions (500 µL) from […] were collected and neutralized with 10% formic acid. Based on the UV absorbance at 280 nm, 95% of the volume of 40 fractions was pooled in 5 fractions for Acetyl-Lysine enrichment. The 5% of these fractions was kept for proteome analysis. Pooled fractions were snap-frozen and lyophilized.
Lyophilized peptides (1.5 mg) from each pool were immuno-affinity purified with the PTMScan HS Acetyl-Lysine Motif (Ac−K) kit (Cell Signaling Technology). For each pool, three consecutive immuno-purifications (IPs) were performed using the manufacturer’s protocol in an automated King Fisher instrument (Thermo). Elution of purified peptides was performed in two consecutive steps of 50 μl of 0.15% TFA. Samples were desalted with C18 stage tips and eluates were vacuum dried and resuspended in 0.1% formic acid for subsequent analysis by LC−MS/MS.
LC-MS/MS was done by coupling an UltiMate 3000 RSLCnano LC system to an Orbitrap Exploris 480 mass spectrometer (Thermo Fisher Scientific). Samples were loaded into a trap column (Acclaim™ PepMap™ 100 C18 LC Columns 5 µm, 20 mm length) for 3 min at a flow rate of 10 µL/min in 0.1% FA. Peptides were then transferred to an EASY-Spray PepMap RSLC C18 column (Thermo) (2 µm, 75 µm x 50 cm) operated at 45 °C and separated using a 90 min effective gradient (buffer A: 0.1% FA; buffer B: 100% ACN, 0.1% FA) at a flow rate of 250 nL/min. The gradient used was, from 4% to 6% of buffer B the first 2 min, from 6% to 33% B the next 58 min, plus 10 additional minutes at 98% B.
The mass spectrometer was operated in a data-dependent mode, with an automatic switch between MS and MS/MS scans using a top 15 method. (Intensity threshold ≥ 1e4, dynamic exclusion of 20 sec and excluding charges unassigned, +1 and ≥ +7). MS spectra were acquired from 350 to 1500 m/z with a resolution of 60,000 FMHW (200 m/z). Ion peptides were isolated using a 0.7 Th window and fragmented using higher-energy collisional dissociation (HCD) with a normalized collision energy NCE of 36. MS/MS spectra were acquired with a fixed first mass of 120 m/z and a resolution of 45,000 FMHW (200 m/z). […]

[6] = ML-2, first (superseded) acetylome experiment, peer review file
[7] = distribution of acetylated sites in the acetylated proteins (Fig 4D)

SMILES: Cc1[nH]c2ccccc2c1CCNCc1ccc(/C=C/C(=O)NO)cc1 [Panobinostat, reference compound]
- GI50 ([1]; HL-60, replicates 1-3, nM for Panobistat and Quisinostat): 15.6 nM and 19.3 nM
- GI50 ([1]; Homo sapiens, HL-60, HL-60, replicates 1-3, nM for Panobistat and Quisinostat): 19.1 nM
- GI50 ([1]; Homo sapiens, HL-60, HL-60): 18 nM
- GI50 ([2]; Homo sapiens, ML-2, ML-2): 51.6 nM
- GI50 ([2]; Homo sapiens, ML-2, ML-2, replicates 1-3, nM for Panobistat and Quisinostat): 46.8 nM
- GI50 ([2]; ML-2, replicates 1-3, nM for Panobistat and Quisinostat): 65.3 nM and 42.7 nM
- GI50 ([3]; Homo sapiens, MOLM-13, MOLM-13): 32 nM
- GI50 ([3]; Homo sapiens, MOLM-13, MOLM-13, replicates 1-3, nM for Panobistat and Quisinostat): 23.2 nM
- GI50 ([3]; MOLM-13, replicates 1-3, nM for Panobistat and Quisinostat): 41.5 nM and 31.3 nM
- GI50 ([4]; Homo sapiens, MV4-11, MV4-11): 13 nM
- GI50 ([4]; Homo sapiens, MV4-11, MV4-11, replicates 1-3, nM for Panobistat and Quisinostat): 14.5 nM
- GI50 ([4]; MV4-11, replicates 1-3, nM for Panobistat and Quisinostat): 13.3 nM and 11.2 nM
- Number of proteins with >5 Acetyl-K sites per protein [5]: 11
- Acetyl-K sites regulated, Number, Histone proteins [5]: 52
- Acetyl-K sites regulated, Number, Non-histone proteins [5]: 587
- Acetyl-K sites regulated, Percentages, Histone proteins [5]: 8.1
- Acetyl-K sites regulated, Percentages, Non-histone proteins [5]: 91.9
- Acetyl-K sites: Down-regulated, % ([5]; ML-2 (Fig 4C)): 8.9%
- Acetyl-K sites: Down-regulated, Number ([5]; ML-2 (Fig 4C)): 322
- Acetyl-K sites: Non-regulated, % ([5]; ML-2 (Fig 4C)): 82.3%
- Acetyl-K sites: Non-regulated, Number ([5]; ML-2 (Fig 4C)): 2979
- Acetyl-K sites: Quantified (total number) ([5]; ML-2 (Fig 4C)): 3618
- Acetyl-K sites: Regulated, % ([5]; ML-2 (Fig 4C)): 17.7%
- Acetyl-K sites: Regulated, Number ([5]; ML-2 (Fig 4C)): 639
- Acetyl-K sites: Up-regulated, % ([5]; ML-2 (Fig 4C)): 8.8%
- Acetyl-K sites: Up-regulated, Number ([5]; ML-2 (Fig 4C)): 317
- fraction of regulated acetylation sites upregulated ([5]; ML-2, 25% GI50, 12 h): 49.6%
- Acetyl-K sites, Down-regulated ([5]; ML-2, 25% GI50, 12 h): 322
- Acetyl-K sites, Up-regulated ([5]; ML-2, 25% GI50, 12 h): 317
- regulated Acetyl-K sites in Histone proteins ([5]; ML-2, 25% GI50, 12 h): 52
- regulated Acetyl-K sites in Non-histone proteins ([5]; ML-2, 25% GI50, 12 h): 587
- percentage of Acetyl-K sites regulated ([5]; ML-2, 25% GI50, 12 h): 17.7%
- acetyl K-sites regulated specifically by the compound [5, 6]: 232
- fraction of regulated acetylation sites upregulated [5, 6]: 53.2%
- Number of proteins with 1 Acetyl-K site per protein [5, 7]: 354
- Number of proteins with 2 Acetyl-K sites per protein [5, 7]: 56
- Number of proteins with 3 Acetyl-K sites per protein [5, 7]: 25
- Number of proteins with 4 Acetyl-K sites per protein [5, 7]: 6

SMILES: O=C(CCCCCCC(=O)Nc1ccccc1)NO [Vorinostat, reference compound]
- GI50 ([1]; HL-60, replicates 1-3, µM for the other inhibitors): 4900 nM and 5600 nM
- GI50 ([1]; Homo sapiens, HL-60, 48 h): 5200 nM
- GI50 ([1]; Homo sapiens, HL-60, HL-60, replicates 1-3, µM for the other inhibitors): 5100 nM
- GI50 ([2]; Homo sapiens, ML-2, 48 h): 4500 nM
- GI50 ([2]; Homo sapiens, ML-2, ML-2, replicates 1-3, µM for the other inhibitors): 4300 nM
- GI50 ([2]; ML-2, replicates 1-3, µM for the other inhibitors): 4200 nM and 5000 nM
- GI50 ([3]; Homo sapiens, MOLM-13, 48 h): 3200 nM
- GI50 ([3]; Homo sapiens, MOLM-13, MOLM-13, replicates 1-3, µM for the other inhibitors): 3100 nM
- GI50 ([3]; MOLM-13, replicates 1-3, µM for the other inhibitors): 3000 nM and 3600 nM
- GI50 ([4]; Homo sapiens, MV4-11, 48 h): 2500 nM
- GI50 ([4]; Homo sapiens, MV4-11, MV4-11, replicates 1-3, µM for the other inhibitors): 2700 nM
- GI50 ([4]; MV4-11, replicates 1-3, µM for the other inhibitors): 2900 nM and 2000 nM
- Acetyl-K sites regulated, Number, Histone proteins [5]: 40
- Acetyl-K sites regulated, Number, Non-histone proteins [5]: 469
- Acetyl-K sites regulated, Percentages, Histone proteins [5]: 7.9
- Acetyl-K sites regulated, Percentages, Non-histone proteins [5]: 92.1
- Acetyl-K sites: Down-regulated, % ([5]; ML-2 (Fig 4C)): 7.7%
- Acetyl-K sites: Down-regulated, Number ([5]; ML-2 (Fig 4C)): 232
- Acetyl-K sites: Non-regulated, % ([5]; ML-2 (Fig 4C)): 85.9%
- Acetyl-K sites: Non-regulated, Number ([5]; ML-2 (Fig 4C)): 3109
- Acetyl-K sites: Quantified (total number) ([5]; ML-2 (Fig 4C)): 3618
- Acetyl-K sites: Regulated, % ([5]; ML-2 (Fig 4C)): 14.1%
- Acetyl-K sites: Regulated, Number ([5]; ML-2 (Fig 4C)): 509
- Acetyl-K sites: Up-regulated, Number ([5]; ML-2 (Fig 4C)): 277
- fraction of regulated acetylation sites upregulated ([5]; ML-2, 25% GI50, 12 h): 54.4%
- Acetyl-K sites, Down-regulated ([5]; ML-2, 25% GI50, 12 h): 232
- Acetyl-K sites, Up-regulated ([5]; ML-2, 25% GI50, 12 h): 277
- regulated Acetyl-K sites in Histone proteins ([5]; ML-2, 25% GI50, 12 h): 40
- regulated Acetyl-K sites in Non-histone proteins ([5]; ML-2, 25% GI50, 12 h): 469
- percentage of Acetyl-K sites regulated ([5]; ML-2, 25% GI50, 12 h): 14.1%
- acetyl K-sites regulated specifically by the compound [5, 6]: 121
- fraction of regulated acetylation sites upregulated [5, 6]: 37.3%
- Number of proteins with 1 Acetyl-K site per protein [5, 7]: 298
- Number of proteins with 2 Acetyl-K sites per protein [5, 7]: 54
- Number of proteins with 3 Acetyl-K sites per protein [5, 7]: 16
- Number of proteins with 4 Acetyl-K sites per protein [5, 7]: 5
- Number of proteins with >5 Acetyl-K sites per protein [5, 7]: 6
